Source: ChEMBL document CHEMBL1134966 (Bioorg Med Chem Lett, 2002)

Key:
Test in all cases: cells
Format in all cases: functional, cell-based
Conditions in all cases: Homo sapiens
G-361 = system: G-361
Description: In vitro cytotoxic effect on G361 cancer cell line

MCF7 = system: MCF7
Description: In vitro cytotoxic effect on MCF-7 cancer cell line

K562 = system: K562
Description: In vitro cytotoxic effect on K562 cancer cell line

CCRF-CEM = system: CCRF-CEM
Description: In vitro cytotoxic effect on CEM cancer cell line

HOS = system: HOS
Description: In vitro cytotoxic effect on HOS cancer cell line

Row | SMILES | IC50 (G-361) [µM] | IC50 (MCF7) [µM] | IC50 (K562) [µM] | IC50 (CCRF-CEM) [µM] | IC50 (HOS) [µM]
1 | CC(C)n1cnc2c(NCc3ccccc3O)nc(NCCCO)nc21 | 13.3 | 12.4 | 24 | 10.7 | 17.2
2 | CC(C)C(CO)Nc1nc(NCc2ccccc2O)c2ncn(C(C)C)c2n1 (stereo unspecified) | 7.8 | 5.7 | 10.9 | 4.4 | 8.3
3 | CC(C)C(CO)Nc1nc(NCc2cccc(O)c2)c2ncn(C(C)C)c2n1 (stereo unspecified) | – | 14.8 | 16.1 | 6.7 | –
4 | CC(C)n1cnc2c(NCc3ccccc3)nc(NCCCO)nc21 [BOHEMINE] | 45 | 28 | 113 | 27 | 58
5 | Cn1cnc2c(NCc3ccccc3)nc(NCCO)nc21 [OLOMOUCINE] | 160 | – | > 167 | 62 | 149
6 | CC(C)[C@H](CO)Nc1nc(Nc2cccc(Cl)c2)c2ncn(C(C)C)c2n1 [PURVALANOLA] | 24 | 10.7 | 9 | 7.4 | 22

Further compounds by falling IC50 (K562), results first:

Row | IC50 (G-361) [µM] | IC50 (MCF7) [µM] | IC50 (K562) [µM] | IC50 (CCRF-CEM) [µM] | IC50 (HOS) [µM] | SMILES
7 | 23 | 12.7 | 57 | 18.2 | – | CC(C)n1cnc2c(NCc3ccc(O)cc3)nc(NCCCO)nc21
8 | 26 | 14.7 | 56 | 17.6 | 26 | CC(C)n1cnc2c(NCc3cccc(O)c3)nc(NCCCO)nc21
9 | 19.4 | 13.7 | 26 | 9.9 | 11 | CCC(CO)Nc1nc(NCc2cccc(O)c2)c2ncn(C(C)C)c2n1 (stereo unspecified)
10 | 11.1 | 7.8 | 24 | 11 | 13 | CCC(CO)Nc1nc(NCc2ccc(O)cc2)c2ncn(C(C)C)c2n1 (stereo unspecified)
11 | 11.1 | 9.3 | 14.8 | 5.3 | 12 | CC(C)C(CO)Nc1nc(NCc2ccc(O)cc2)c2ncn(C(C)C)c2n1 (stereo unspecified)
12 | 6.3 | 5.3 | 11.1 | 3 | 6.3 | CC[C@H](CO)Nc1nc(NCc2ccccc2O)c2ncn(C(C)C)c2n1 [OLOMOUCINE II]
